According to US8637511B2, “Aminopyrimidines useful as kinase inhibitors” (Vertex Pharmaceuticals Incorporated, priority 2005, dated 2014):
“And” between values parts separate entries of the source, which are not always exact repeats. Identical values can stand only once. Like-named read-outs stand apart in the source and are kept apart here.

Tests used:
Assay type in all cases: biochemical
Aurora-2 (Aurora A) = target: T1, Aurora-2 (Aurora A) (Homo sapiens, UniProt O14965); test: Aurora-2 (Aurora A) inhibition assay, coupled enzyme
T1 sequence (O14965 1-403): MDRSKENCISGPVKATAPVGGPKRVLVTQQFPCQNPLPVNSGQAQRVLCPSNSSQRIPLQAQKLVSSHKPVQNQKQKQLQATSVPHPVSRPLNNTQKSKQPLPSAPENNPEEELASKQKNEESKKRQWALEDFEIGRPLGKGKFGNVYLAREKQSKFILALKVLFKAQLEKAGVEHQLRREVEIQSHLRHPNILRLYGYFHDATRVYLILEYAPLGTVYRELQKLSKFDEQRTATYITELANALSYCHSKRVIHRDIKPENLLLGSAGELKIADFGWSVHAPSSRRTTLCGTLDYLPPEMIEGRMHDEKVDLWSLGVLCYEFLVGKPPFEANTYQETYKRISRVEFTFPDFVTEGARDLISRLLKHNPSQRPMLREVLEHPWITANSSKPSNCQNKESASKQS
In short: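 Coupled pyruvate kinase/lactate dehydrogenase assay with NADH in pH 7.5 Hepes containing MgCl2, DTT and NaCl, using 40 nM Aurora-2 at 30 °C. After a 10 min preincubation, enzyme addition started the reaction, and initial rates were taken over 10 min. IC50 and Ki came from non-linear regression.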

Aurora-1 (Aurora B) = Aurora-1 (Aurora B) (Homo sapiens, UniProt Q96GD4); test: Aurora-1 (Aurora B) inhibition assay (radiometric)
Chain of Aurora-1 (Aurora B) (Q96GD4 whole entry): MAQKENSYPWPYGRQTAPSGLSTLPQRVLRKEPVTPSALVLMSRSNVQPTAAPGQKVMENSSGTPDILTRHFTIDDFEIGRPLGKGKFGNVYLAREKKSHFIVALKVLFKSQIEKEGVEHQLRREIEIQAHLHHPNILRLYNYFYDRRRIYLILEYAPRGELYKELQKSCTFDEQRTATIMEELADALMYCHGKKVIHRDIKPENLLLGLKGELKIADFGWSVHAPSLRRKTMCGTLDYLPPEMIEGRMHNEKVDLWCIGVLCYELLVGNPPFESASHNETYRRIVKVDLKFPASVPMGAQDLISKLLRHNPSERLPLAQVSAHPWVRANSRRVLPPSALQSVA
In short: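 Radiometric ^33P incorporation into peptide substrate, with [γ-^33P]-ATP at 800 μM final, in 25 mM HEPES pH 7.5, 10 mM MgCl2, 0.1% BSA, 10% glycerol. Compound preincubated with enzyme for 10 min at 25° C, reaction run 3 h, then captured on phosphocellulose. Ki from initial rates by non-linear regression after background subtraction.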

FLT-3 = target: T2, FLT-3 (Homo sapiens, UniProt P36888); test: FLT-3 inhibition assay, radiometric filter-binding
T2 sequence (P36888 27-993): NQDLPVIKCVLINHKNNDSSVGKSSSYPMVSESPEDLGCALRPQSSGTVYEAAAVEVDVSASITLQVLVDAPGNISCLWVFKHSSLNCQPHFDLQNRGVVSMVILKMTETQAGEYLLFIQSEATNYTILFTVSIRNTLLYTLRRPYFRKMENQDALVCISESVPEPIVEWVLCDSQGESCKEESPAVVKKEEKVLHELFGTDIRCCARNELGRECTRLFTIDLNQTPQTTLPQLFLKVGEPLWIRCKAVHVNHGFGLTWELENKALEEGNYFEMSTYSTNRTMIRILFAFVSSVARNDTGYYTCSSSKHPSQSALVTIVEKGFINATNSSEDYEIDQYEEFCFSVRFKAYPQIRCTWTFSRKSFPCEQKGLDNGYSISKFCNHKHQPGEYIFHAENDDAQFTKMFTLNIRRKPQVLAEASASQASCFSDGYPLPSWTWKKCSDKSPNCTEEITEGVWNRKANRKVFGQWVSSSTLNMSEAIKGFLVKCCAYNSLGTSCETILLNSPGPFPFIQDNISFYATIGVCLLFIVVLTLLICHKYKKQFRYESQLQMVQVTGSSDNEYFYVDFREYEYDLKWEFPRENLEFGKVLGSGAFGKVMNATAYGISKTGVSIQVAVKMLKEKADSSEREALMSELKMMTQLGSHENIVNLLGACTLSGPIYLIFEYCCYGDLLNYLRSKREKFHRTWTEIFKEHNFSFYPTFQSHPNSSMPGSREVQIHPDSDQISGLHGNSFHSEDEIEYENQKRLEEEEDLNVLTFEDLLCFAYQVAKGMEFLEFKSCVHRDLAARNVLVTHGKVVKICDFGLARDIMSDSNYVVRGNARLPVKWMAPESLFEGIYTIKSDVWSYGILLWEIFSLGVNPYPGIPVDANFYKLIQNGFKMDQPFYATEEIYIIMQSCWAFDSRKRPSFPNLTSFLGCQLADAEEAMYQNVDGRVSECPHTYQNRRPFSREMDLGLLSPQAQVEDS
Experimental: This assay monitors the 33P incorporation into a substrate poly(Glu, Tyr) 4:1 (pE4Y). […] Final substrate concentrations in the assay were 90 μM ATP and 0.5 mg/ml pE4Y (both from Sigma Chemicals, St. Louis, Mo.). […] Reactions were carried out at room temperature.
Two assay solutions were prepared. Solution 1 contains 100 mM HEPES (pH 7.5), 10 mM MgCl2, 25 mM NaCl, 1 mg/ml pE4Y and […] (containing 0.3 mCi of [γ-33^P]ATP for each reaction). Solution 2 contains 100 mM HEPES (pH 7.5), 10 mM MgCl2, 25 mM NaCl, 2 mM DTT, 0.02% BSA and 3 nM FLT-3. The assay was run on a 96 well plate by mixing 50 μl each of Solution 1 and […] of the compounds of the present invention. The reaction was initiated with Solution 2. […] All of the reaction volume was then transferred to a filter plate and washed with 5% TCA by a Harvester 9600 from TOMTEC (Hamden, Conn.). The amount of ^33P incorporation into pE4y was analyzed by a Packard Top Count Microplate Scintillation Counter (Meriden, Conn.). The data was fitted using Prism software to get an IC50 or Ki.

[1] = read-out: Aurora A kinase Ki value
[2] = read-out: Aurora B kinase Ki value

SMILES	Ki (Aurora-2 (Aurora A); [1]) [nM]	Ki (Aurora-1 (Aurora B); [2])	Ki (FLT-3) [nM]	Ki (FLT-3; read-out: FLT-3 Ki value) [nM]	Ki (Aurora-2 (Aurora A)) [nM]	Ki (Aurora-1 (Aurora B); Aurora B kinase Ki value)
Cc1cnc(Nc2cc(N3CC(N)C3)nc(Sc3ccc(NC(=O)C4CC4)cc3)n2)s1 [Compound 2]	5 to 200	50 to 2000 nM	≤ 50			
Cc1cc(Nc2cc(N3CCC3)nc(Sc3ccc(NC(=O)c4ccc(F)cc4F)cc3)n2)n[nH]1 [Compound 44]	1 to 5	10 to 50 nM	150 to 1000			
Cc1cc(Nc2cc(N3CCC3)nc(Sc3ccc(NC(=O)CCC(F)(F)F)cc3)n2)[nH]n1 [Compound 121]	1 to 5	10 to 50 nM and < 25 nM		50 to 150		
Cc1cc(Nc2cc(N3CCC3)nc(Sc3ccc(C(=O)Nc4ccccc4Cl)cc3)n2)[nH]n1 [Compound 48]	1 to 5	≤ 10 nM	150 to 1000			
Cc1cc(Nc2cc(N3CCC3)nc(Sc3ccc(NC(=O)C(F)(F)F)cc3)n2)[nH]n1 [Compound 158]	1 to 5	≤ 10 nM		50 to 150		
Cc1cc(Nc2cc(N3CCC3)nc(Sc3ccc(C(=O)NC4CCCC4)cc3)n2)n[nH]1 [Compound 23]	5 to 200	50 to 2000 nM		150 to 1000		
Cc1cc(Nc2cc(N3CC(OC(C)(C)C)C3)nc(Sc3ccc(NC(=O)c4ccccc4Cl)cc3)n2)[nH]n1 [Compound 66]		≤ 10 nM	150 to 1000		≤ 1	
Cc1cc(Nc2cc(N3CC(N4CC[C@H](F)C4)C3)nc(Sc3ccc4ncccc4c3)n2)n[nH]1 [Compound 160]		≤ 10 nM	≤ 50		≤ 1	
Cc1cc(Nc2cc(N3CCC3)nc(Sc3ccc(NC(=O)c4ccc(Cl)cc4Cl)cc3)n2)n[nH]1 [Compound 162]		10 to 50 nM and < 25 nM	150 to 1000		≤ 1	
CC1=NN=C(Nc2cc(N3CCC3)nc(Sc3ccc(NC(=O)c4cccc(Cl)c4F)cc3)n2)C1 [Compound 61]	≤ 1	≤ 10 nM	150 to 1000			
Cc1cc(Nc2cc(N3CCC3)nc(Sc3ccc(C(=O)N4CCCC4)cc3)n2)n[nH]1 [Compound 22]		50 to 2000 nM	50 to 150		5 to 200	
Cc1cc(Nc2cc(N3CCC3)nc(Sc3ccc(NC(=O)c4ccncc4C(F)(F)F)cc3)n2)[nH]n1 [Compound 146]	≤ 1	≤ 10 nM	150 to 1000			
CCCNC(=O)Nc1ccc(Sc2nc(Nc3cc(C)[nH]n3)cc(N3CCC3)n2)cc1 [Compound 73]	5 to 200	50 to 2000 nM	50 to 150			
CC1=NN=C(Nc2cc(N3CCC3)nc(Sc3ccc(NC(=O)C4CCCN4C)cc3)n2)C1 (stereo not drawn) [Compound 6]	5 to 200		150 to 1000			10 to 50 nM and < 25 nM
Cc1cc(Nc2cc(N3CCC3)nc(Sc3ccc(NC(=O)c4ccc(Cl)cc4)cc3)n2)n[nH]1 [Compound 54]		50 to 2000 nM	150 to 1000		1 to 5	
Cc1cc(Nc2cc(N3CC(C#N)C3)nc(Sc3ccc(NC(=O)c4ccccc4Cl)cc3)n2)n[nH]1 [Compound 16]	≤ 1	≤ 10 nM	50 to 150			
Cc1cc(Nc2cc(N3CCC3)nc(Sc3ccc(N(C)C(=O)c4ccccc4F)cc3)n2)n[nH]1 [Compound 10]	5 to 200	50 to 2000 nM	50 to 150			
Cc1cc(Nc2cc(N3CCC3)nc(Sc3ccc(NC(=O)OC(C)(C)C)cc3)n2)n[nH]1 [Compound 26]	5 to 200	50 to 2000 nM	50 to 150			

SMILES	Ki (Aurora-2 (Aurora A); [1]) [nM]	Ki (Aurora-1 (Aurora B); [2])	Ki (FLT-3) [nM]	Ki (FLT-3; read-out: FLT-3 Ki value) [nM]	Ki (Aurora-2 (Aurora A)) [nM]	Ki (Aurora-1 (Aurora B); Aurora B kinase Ki value)
Cc1cc(Nc2cc(N3CCC3)nc(Sc3ccc(NC(=O)c4ocnc4C)cc3)n2)n[nH]1 [Compound 167]	5 to 200	50 to 2000 nM	150 to 1000			
Cc1cc(Nc2cc(N3CC(C)(O)C3)nc(Sc3ccc(NC(=O)c4ccccc4C(F)(F)F)cc3)n2)[nH]n1 [Compound 115]		≤ 10 nM	50 to 150		≤ 1	
Cc1cc(Nc2cc(N3CCC3)nc(Sc3ccc(NC(=O)c4nccn4C)cc3)n2)n[nH]1 [Compound 166]	5 to 200	50 to 2000 nM	150 to 1000			
CCC(=O)Nc1ccc(Sc2nc(Nc3cc(C)[nH]n3)cc(N3CC(O)C3)n2)cc1 [Compound 15]		10 to 50 nM and < 25 nM	50 to 150		1 to 5	
Cc1cc(Nc2cc(N3CCC3)nc(Sc3ccc(NC(=O)c4cc(C)nc(Cl)c4)cc3)n2)[nH]n1 [Compound 149]	1 to 5	10 to 50 nM		150 to 1000		
O=C(CC(F)(F)F)Nc1ccc(Sc2nc(Nc3cc[nH]n3)cc(N3CC(F)(C4CC4)C3)n2)cc1 [Compound 148]	1 to 5	50 to 2000 nM	50 to 150			
Cc1cc(Nc2cc(N3CCC3)nc(Sc3ccc(NC(=O)c4c(F)cccc4N4CCC4)cc3)n2)n[nH]1 [Compound 8]	1 to 5	≤ 10 nM	50 to 150			
CCC(=O)Nc1ccc(Sc2nc(Nc3cc(C4CC4)n[nH]3)cc(N3CC(C)(O)C3)n2)cc1 [Compound 76]	1 to 5	≤ 10 nM	≤ 50			
Cc1cc(Nc2cc(N3CCC3)nc(Sc3ccc(NC(=O)C4CC4(F)F)cc3)n2)[nH]n1 (stereo not drawn) [Compound 112]	1 to 5	10 to 50 nM and < 25 nM		≤ 50		
Cc1cc(Nc2cc(N3CCC3)nc(Sc3ccc(NC(=O)Cc4ccccc4)cc3)n2)n[nH]1 [Compound 35]	1 to 5	10 to 50 nM	50 to 150			
Cc1cc(Nc2cc(N3CCC3)nc(Sc3ccc(N)cc3)n2)[nH]n1 [Compound 108]	5 to 200	50 to 2000 nM		≤ 50		
CC1=NN=C(Nc2cc(N3CCC3)nc(Sc3ccc(NC(=O)c4ccccc4Cl)cc3)n2)C1 [Compound 5]	≤ 1	≤ 10 nM		50 to 150		
Cc1cc(Nc2cc(N3CC(F)C3)nc(Sc3ccc(NC(=O)c4ccccc4Cl)cc3)n2)[nH]n1 [Compound 60]	1 to 5	10 to 50 nM		50 to 150		
Cc1cc(Nc2cc(N3CCC3)nc(Sc3ccc(NC(=O)c4ccc(CN(C)C)cc4)cc3)n2)[nH]n1 [Compound 137]	5 to 200	50 to 2000 nM		50 to 150		
Cc1cc(Nc2cc(N3CC(O)(C4CC4)C3)nc(Sc3ccc4ccccc4c3)n2)n[nH]1 [Compound 131]	≤ 1	50 to 2000 nM	≤ 50			
Cc1cc(Nc2cc(N3CCC3)nc(Sc3ccc(NC(=O)C4CC4)cc3)n2)n[nH]1 [Compound 17]	1 to 5	10 to 50 nM		50 to 150		
COC1CN(c2cc(Nc3cc(C)[nH]n3)nc(Sc3ccc(NC(=O)c4ccccc4Cl)cc3)n2)C1 [Compound 12]		≤ 10 nM	50 to 150		≤ 1	
Cc1cnc(Nc2cc(N3CC(O)C3)nc(Sc3ccc(NC(=O)C4CC4)cc3)n2)s1 [Compound 3]	1 to 5	≤ 10 nM	≤ 50			
